# Measured values as given in PMC6681416, “Novel Derivatives of Deoxycholic Acid Bearing Linear Aliphatic Diamine and Aminoalcohol Moieties and their Cyclic Analogs at the C3 Position: Synthesis and Evaluation of Their In Vitro Antitumor Potential” (Molecules, 2019).
# Tests used:
# [1] = test system: caspase-3/7 in HuTu-80 cells; experiment: Caspase-3/-7 activity (Caspase-Glo 3/7); assay type: cell-based, human; details: 8 µM, 18 h and 24 h time points
# Procedure: In the next step of the study our attention was focused on understanding the ability of compound 9 to activate caspases—a family of cysteine proteases, being critical mediators of apoptosis. In order to perform this, we evaluated the effect of compound 9 on activity of key executioner caspases-3 and -7 responsible for proteolytic cleavage of many proteins in the culminating step of cell death.
# The caspase-3/-7 activity in HuTu-80 cells was assessed by using Caspase-Glo® 3/7 Assay kit (Promega, Madison, WI, USA) according to the manufacturer’s instructions. Briefly, the cells were seeded in white-walled 96-well plates at a density of 10^4 cells/well for 24. After incubation, cells were treated with compound 9 at 8 µM for 6, 18 or 24 h and then 100 µL of Caspase-Glo® 3/7 reagent was added to each well. The plate was carefully shaken for 30 sec on a plate mixer and afterwards incubated for 30 min at room temperature in the dark. The luminescence was detected using CLARIOstar plate reader (BMG Labtech, Ortenberg, Germany).
# [2] = test system: NO synthesis by IFNγ-activated RAW264.7 cells; experiment: Inhibition of NO production by stimulated macrophages (Griess); assay type: cell-based, murine; details: Mus musculus, RAW264.7, 24 h, read-out: IC50NO
# Procedure: RAW264.7 cells were seeded in triplicate in 96-well plates at a density of 5 × 10^4 cells/well and incubated under standard conditions for 24 h. The cells were treated with 20 ng/mL of murine recombinant IFNγ (GIBCO, Gaithersburg, MD, USA), with or without (control) compounds at various concentrations for 24 h. The level of NO production was evaluated by determining the nitrite concentration in culture medium with a Griess Reagent System (Promega, Madison, WI, USA). The IC50^NO value was calculated as the derivative concentration required to decrease NO production to 50% of the non-treated control.
smiles,measurement,setting,value
"COC(=O)CC[C@@H](C)[C@H]1CC[C@H]2[C@@H]3CC[C@@H]4CC(O)(CNCCCO)CC[C@]4(C)[C@H]3CC(=O)[C@]12C (stereo partly drawn) [Compound 9, Methyl 3-hydroxy-3-((3-hydroxypropylamino)methyl)-12-oxo-5β-cholan-24-oate]",caspase-3/7 activity,[1],significantly increased
same,IC50,[2],> 10 µM
